16 molecules from patent publication US20200068891A1, “Synergetic Biocidal Compositions Comprising 5-Chlorine-2-Methylisothiazolin-3-One” (priority 2017, published 2020) can be followed below.

Assay [1] deals with Pseudomonas putida (DSM 25068). Briefly: Synergy test: minimum inhibitory concentrations in microtiter plates, Pseudomonas putida in Mueller-Hinton broth. Format: cell-based. Particulars: 48 hours at 30° C.; for Synergy index Qa/QA + Qb/QB: below 1 = synergism; for Qa (CMIT): concentration of CMIT indicating an end point / Qa (CIT): concentration of CMIT indicating an end point: as sole agent (QA) where Qb is 0. The method, then:
(Pseudomonas) or 25° C. (Yarrowia).
Kull et al., Applied Microbiology, Vol. 9 (1961), p. 538.
QA =concentration of component A as sole biocide
QB =concentration of component B as sole biocide

The test system of assay [2] is Yarrowia lipolytica (DSM 32369). Briefly: Synergy test: minimum inhibitory concentrations in microtiter plates, Yarrowia lipolytica in Sabouraud Maltose broth. Particulars: 48 hours at 25° C.; for Synergy index Qa/QA + Qb/QB: below 1 = synergism; for Qa (CMIT) / Qa (CMIT): concentration of CMIT indicating an end point: as sole agent (QA) where Qb is 0.
Experimental: The test organisms used were the Gram-negative bacterium Pseudomonas putida (DSM 25068) and the yeast fungus Yarrowia lipolytica (DSM 32369). For this, mixtures with different concentrations of the particular active substances were prepared and tested in regard to their effect on Pseudomonas putida and Yarrowia lipolytica. The testing was done in Milller-Hinton broth MHB (in the case of Pseudomonas) or Sabouraud Maltose broth SMB (in the case of Yarrowia) with a cell density of 10^6 germs per ml.
The incubation time of the microtiter plates was 48 hours at 30° C. (Pseudomonas) or 25° C. (Yarrowia). After 48 hours the batches were evaluated for turbidity due to growth and, in addition, the optical density was determined by photometry. In this way, the minimum inhibitory concentrations (MHK) were determined for the two active substances individually and in combination.
The resulting synergism was represented numerically by calculating the synergy index (SI). […] There, the SI is calculated by the following formula: synergy index SI =Qa/QA +Qb/QB
Qa =concentration of component A in the mixture A+B
Qb =concentration of component B in the mixture A+B
If the synergy index has a value over 1, this means that an antagonism is present. If the synergy index takes on the value 1, this means that an addition of the effect of the two biocides/compounds is present. If the synergy index takes on a value below 1, this means that a synergism exists for the two biocides. If the synergy index has a value of more than 1, this means that an antagonism exists.
Setting [3] is: in the mixture with CMIT, as sole agent (QB) where Qa is 0.

With `O=CCCCC=O` [GDA, glutardialdehyde], in assay [1] (CMIT and GDA), the “Synergy index Qa/QA + Qb/QB” value is given as 1.00. Further, the “Qb (GDA): concentration of GDA indicating an end point” value in assay [1] (setting [3]) amounted to 500 ppm.

In the case of `CCCCNC(=O)OCC#CI` [IPBC, 3-iodo-2-propynyl butylcarbamate], the “Synergy index Qa/QA + Qb/QB” value worked out at 1.00 in assay [1] (CMIT and IPBC); 1.00 in assay [2] (CMIT and IPBC). The “Qb (IPBC): concentration of IPBC indicating an end point” value in assay [1] (setting [3]) was found to be 1000 ppm; in assay [2] (setting [3]), 2.50 ppm.

`CCCCCCCCn1sccc1=O` [OIT, octylisothiazolinone]: the “Synergy index Qa/QA + Qb/QB” value in assay [1] (CMIT and OIT) came to 1.00; in assay [2] (CMIT and OIT) it was 1.00. Moreover, the “Qb (OIT): concentration of OIT indicating an end point” value is listed as 300 ppm in assay [1] (setting [3]) and 2.00 ppm in assay [2] (setting [3]).

For the molecule `CCCCCCCCCC[N+](C)(C)CCCCCCCCCC.[Cl-]` [DDAC, didecyldimethylammonium chloride], the “Synergy index Qa/QA + Qb/QB” value in assay [1] (CMIT and DDAC) was found to be 1.00. Further, the “Qb (DDAC): concentration of DDAC indicating an end point” value in assay [1] (setting [3]) is 7.5 ppm.

Regarding `OCCc1ccccc1` [phenetyl alcohol], in assay [1] (CMIT and phenetyl alcohol), the “Synergy index Qa/QA + Qb/QB” value stood at 1.00. In addition, the “Qb (phenetyl alcohol): concentration of phenetyl alcohol indicating an end point” value in assay [1] (setting [3]) was 3000 ppm.

For the molecule `O=C(O)c1ccccc1` [benzoic acid], in assay [2] (setting [3]), the “Qb (benzoic acid): concentration of benzoic acid indicating an end point” value came out at 2500 ppm.

Consider `C/C=C/C=C/C(=O)O` [sorbic acid], for which the “Synergy index Qa/QA + Qb/QB” value in assay [2] (CMIT and sorbic acid) is 1.00. The “Qb (sorbic acid): concentration of sorbic acid indicating an end point” value in assay [2] (setting [3]) turned out to be 750 ppm.

For the molecule benzalkonium chloride [BAC], the “Synergy index Qa/QA + Qb/QB” value in assay [1] (CMIT and BAC) is 1.00. Besides, the “Qb (BAC): concentration of BAC indicating an end point” value in assay [1] (setting [3]) stood at 30 ppm.

Regarding `C=O` [HCHO, formaldehyde], in assay [1] (CMIT and HCHO), the “Synergy index Qa/QA + Qb/QB” value was found to be 1.00. For the same molecule, the “Qb (HCHO): concentration of HCHO indicating an end point” value in assay [1] (setting [3]) turned out to be 500 ppm.

On to `CC(O)(P(=O)(O)O)P(=O)(O)O` [HEDP, (1-hydroxyethylidene)bis-phosphonic acid], for which the “Synergy index Qa/QA + Qb/QB” value in assay [1] (CMIT and HEDP) amounted to 1.00. Also, in assay [1] (setting [3]), the “Qb (HEDP): concentration of HEDP indicating an end point” value is 250 ppm.

For the molecule `CCCCn1sc2ccccc2c1=O` [BBIT, N-butyl-benzisothiazolinone], the “Synergy index Qa/QA + Qb/QB” value in assay [1] (CMIT and BBIT) came out at 1.00; in assay [2] (CMIT and BBIT) it was 1.00. The figures for the “Qb (BBIT): concentration of BBIT indicating an end point” value in assay [1] (setting [3]) and in assay [2] (setting [3]) were 20 ppm and 3.00 ppm, respectively.

Regarding `Cn1sc(Cl)cc1=O` [CMIT, 5-chloro-2-methylisothiazolin-3-one], the “Synergy index Qa/QA + Qb/QB” value in assay [1] (CMIT and BAC) came out at 1.00; in assay [1] (CMIT and BBIT), 1.00; in assay [1] (CMIT and DDAC), 1.00; in assay [1] (CMIT and EDDS), 1.00; in assay [1] (CMIT and GDA) it was 1.00; in assay [1] (CMIT and HCHO), 1.00. Further, the “Synergy index Qa/QA + Qb/QB” value is on record as 1.00 in assay [1] (CMIT and HEDP); 1.00 in assay [1] (CMIT and IPBC); 1.00 in assay [1] (CMIT and OIT); 1.00 in assay [1] (CMIT and PASP Na salt); 1.00 in assay [1] (CMIT and ethylparaben); 1.00 in assay [1] (CMIT and methylparaben). Besides, the “Synergy index Qa/QA + Qb/QB” value in assay [1] (CMIT and phenetyl alcohol) was 1.00; in assay [2] (CMIT and BBIT), 1.00; in assay [2] (CMIT and IPBC), 1.00; in assay [2] (CMIT and OIT), 1.00; in assay [2] (CMIT and dehydracetic acid) it was 1.00; in assay [2] (CMIT and salicylic acid) it was 1.00. For the same molecule, in assay [2] (CMIT and sorbic acid), the “Synergy index Qa/QA + Qb/QB” value stood at 1.00. The “Qa (CMIT): concentration of CMIT indicating an end point” value (from here on “Qa (CMIT): concentration”) in assay [1] (in the mixture with BAC), in assay [1] (in the mixture with DDAC), in assay [1] (in the mixture with EDDS), in assay [1] (in the mixture with GDA), in assay [1] (in the mixture with HCHO) and in assay [1] (in the mixture with HEDP) was 2 ppm throughout. The “Qa (CMIT): concentration” value in assay [1] (in the mixture with PASP Na salt) was 2 ppm; in assay [1] (in the mixture with ethylparaben), 2 ppm; in assay [1] (in the mixture with methylparaben), 2 ppm; in assay [1] (in the mixture with phenetyl alcohol), 2 ppm; in assay [2] (in the mixture with benzoic acid), 2.5 ppm; in assay [2] (in the mixture with dehydracetic acid), 2.5 ppm. The “Qa (CMIT): concentration” value in assay [2] (in the mixture with salicylic acid) and in assay [2] (in the mixture with sorbic acid) was 2.5 ppm throughout. The “Qa (CIT): concentration of CMIT indicating an end point” value in assay [1] (in the mixture with BBIT), in assay [1] (in the mixture with IPBC) and in assay [1] (in the mixture with OIT) was 2 ppm in each case. Moreover, the “Qa (CMIT)” value in assay [2] (in the mixture with BBIT), in assay [2] (in the mixture with IPBC) and in assay [2] (in the mixture with OIT) was 2.50 ppm throughout.

Regarding `CC(=O)C1C(=O)C=C(C)OC1=O` (centres unmarked) [dehydracetic acid], the “Synergy index Qa/QA + Qb/QB” value in assay [2] (CMIT and dehydracetic acid) is listed as 1.00. Besides, the “Qb (dehydracetic acid): concentration of dehydracetic acid indicating an end point” value in assay [2] (setting [3]) is on record as 200 ppm.

For `CCOC(=O)c1ccc(O)cc1` [ethylparaben], in assay [1] (CMIT and ethylparaben), the “Synergy index Qa/QA + Qb/QB” value is on record as 1.00. The “Qb (ethylparaben): concentration of ethylparaben indicating an end point” value in assay [1] (setting [3]) is listed as 1500 ppm.

As for `COC(=O)c1ccc(O)cc1` [methylparaben], in assay [1] (CMIT and methylparaben), the “Synergy index Qa/QA + Qb/QB” value amounted to 1.00. In addition, in assay [1] (setting [3]), the “Qb (methylparaben): concentration of methylparaben indicating an end point” value was determined as 2000 ppm.

For the molecule `O=C(O)c1ccccc1O` [salicylic acid], the “Synergy index Qa/QA + Qb/QB” value in assay [2] (CMIT and salicylic acid) turned out to be 1.00. Besides, the “Qb (salicylic acid): concentration of salicylic acid indicating an end point” value in assay [2] (setting [3]) was found to be 3000 ppm.
